Test results: patent US7988958B2, “Enterococcus and Streptococcus strains and bacteriocins” (The United States of America as represented by the …, priority 2005, dated 2011)

Experiments:
Assay in all cases: MIC of purified bacteriocins and antibiotic by Spot Test
Format in all cases: cell-based
[1] = system: Helicobacter pylori; details: H. pylori; 24 hours at 37° C., microaerobic
Protocol: (§1) The minimal inhibiting concentrations (MICs) of bacteriocins 760 and 50-52 and Methicillin were determined by Spot Test. Various concentrations of purified bacteriocins (μg/ml) in a volume of 10 μl was added to cultures of Staphylococcus aureus, Staphylococcus epidermidis, Pseudomonas aeruginosa, and Helicobacter pylori. The cultures were incubated for about 24 hours at about 37° C. under aerobic conditions for all but Helicobacter pylori which was incubated under microaerobic conditions.

[2] = system: Pseudomonas aeruginosa; details: P. aeruginosa; 24 hours at 37° C., aerobic
Protocol: as §1

[3] = system: Staphylococcus aureus; details: S. aureus; 24 hours at 37° C., aerobic
Protocol: as §1

[4] = system: Staphylococcus epidermidis; details: S. epidermidis; 24 hours at 37° C., aerobic
Protocol: as §1

- MIC of purified Bacteriocins and Antibiotic [1]: 93.8 µg/mL
- MIC of purified Bacteriocins and Antibiotic [2]: 78.4 µg/mL
- MIC of purified Bacteriocins and Antibiotic [3]: 52.5 µg/mL
- MIC of purified Bacteriocins and Antibiotic [4]: 64.8 µg/mL
Structure (SMILES): COc1cccc(OC)c1C(=O)N[C@@H]1C(=O)N2[C@@H]1SC(C)(C)[C@@H]2C(=O)O [Methicillin, reference compound]
